Common to all, as to type: in vivo, human
Assay [1] concerns biofilm and infection around titanium implant. The experiment in a line: Treatment of infected periimplant tissue: chromophore staining plus 830 nm diode laser hot tip. The source says:
(§1) The laser used to exemplify the invention was a 830 nm diode laser with a power output of between 800 mW-1200 mW in the Continuous Wave mode of operation, through a 600 micron silica laser delivery fiber. The live human patients (in vivo) all presented with some advanced state of periodontal or periimplant disease and/or active infection. Presented below are data for two representative patients.
Presented as a brittle diabetic with an infected titanium implant and a fistula draining the infection. Radiographic appearance detailed 8 mm of lost bone, and generalized radiolucency around the medial half of the implant. […] The area was surgically opened with a conventional trapezoidal shaped flap, and the infection and biofilm effected area was bathed in a 0.1% MB solution (sold by Vista Dental Products, Racine, Wis.) for approximately 2 minutes. The area was then irrigated with copious H2O, leaving the targeted biofilm behind, and washing away excess stain. A […] silica fiber connected to an 830 nm dental diode laser was then activated at 1200 mW and the fiber was placed in contact with biofilm and blood products and immediately carbonized. […]

Assay [2] relates to biofilm in periodontal pocket. Nature of the assay: Treatment of a recalcitrant 10 mm periodontal pocket: chromophore staining plus 830 nm diode laser hot tip. The following applies: one patient; for periodontal pocket probing depth: baseline 10 mm pocket, 0.1% MB solution, laser 1000 mW.
Text: as §1
Presented as a healthy […] with a recalcitrant 10 mm periodontal pocket on the facial aspect of the maxillary canine (tooth #6) after a regular dental cleaning and scaling. In a minimally invasive procedure, the patient was anesthetized with xylocaine, and the periodontal pocket was infused with 0.1% MB solution via a small bristled brush that easily fits into the volume of the pocket. The MB solution was left for approximately 2 minutes in the area, and then surface irrigation of H2O was applied.
A […] silica fiber connected to a 830 nm dental diode laser (sold by Lumenis Technologies, Yokneam, Israel) was then activated at 1000 mW and the fiber was placed into the periodontal pocket, where it immediately came in contact with biofilm, tissue, and blood products. The tip of the fiber immediately carbonized, and became incandescent. The fiber (with the secondary quantum emissions emanating from the carbonized tip), was then moved around the three dimensional area of the periodontal pocket for a period of 30 to 45 seconds in rapid movements, never staying in one direct area for more than 1 second at a time. The area was then scaled with traditional gracey periodontal scalers (sold by Hu-Friedy Chicago, Ill.), and then irrigated with copious water. The patient was sent home with administration of 600 mg of Ibuprophen (sold by Wyeth, Madison, N.J.) analgesic given chair-side, and no antibiotics.

For assay [3], the system named is periodontal and periimplant pockets and infections. The experiment in a line: Procedure performed on 50 patients in periodontal and periimplant pockets and infections. The following applies: 50 patients in the last 24 months, 830 nm diode laser 800 mW-1200 mW CW, 600 micron fiber.
Text: as §1

Take `CN(C)c1ccc2nc3ccc(=[N+](C)C)cc-3sc2c1` [Methylene Blue]: the “infection status of periimplant area” value is “completely free of infection” in assay [1] (one diabetic patient, 0.1% MB solution approx. 2 minutes, laser 1200 mW 60 to 90 seconds, scaling, 5 day Amoxicillin, three weeks post-op) and “still infection free” in assay [1] (same patient, at 9 months). In assay [2] (0.1% MB solution approx. 2 minutes, laser 1000 mW 30 to 45 seconds, then scaling, eight days post-op), the “state of the periodontal pocket” value is recorded as “completely closed”. The “periodontal pocket probing depth” value in assay [2] (at four months) and in assay [2] (at six weeks) was 3 mm in each case. The clinical outcome in assay [3] is recorded as “successful outcomes”.
`Cc1cc2nc3ccc(N(C)C)cc3[s+]c2cc1N.[Cl-]` [Toludine Blue]: in assay [3], the clinical outcome was “successful outcomes”.

For the origin of these results see patent US20110070552A1, “USE OF SECONDARY OPTICAL EMISSION AS A NOVEL BIOFILM TARGETING TECHNOLOGY” (NOMIR MEDICAL TECHNOLOGIES INC, priority 2003, published 2011).
